# Results: patent publication US10350252B2, “Cocoa polyphenols and their use in the treatment or prevention of eosinophilic esophagitis” (NESTEC S.A., priority 2013, dated 2019)
# Test system: eosinophils in the esophagus
# Assay: Mouse model of eosinophilic esophagitis (epicutaneous Aspergillus fumigatus sensitization, intranasal challenge): eosinophil count in H&E stained esophagus
# Type: in vivo, Balb/c mice
# Conditions: compared to the positive control (3X ASP sensitized, 1x ASP challenged, untreated); test substance in the food; harvest on day 32
# Description: It is the object of the invention to provide new and alternative solutions to the problem of preventing or treating eosinophilic esophagitis. […] The evaluation of ingredients which are useful in the treatment or prevention of eosinophilic esophagitis is performed using an established mouse model for eosinophilic esophagitis (Akei et al., “Epicutaneous antigen exposure primes for experimental eosinophilic esophagitis in mice”, Gastroenterology, 2005 September; 129(3):985-94). This model uses various parameters including the number of eosinophils in the esophagus as indicators for the effect on eosinophilic esophagitis. Accordingly, is ideally suited for the testing of compounds that are candidates for the treatment or prevention of eosinophilic esophagitis. FIG. 2. Eosinophil number in the esophagus. The esophagea were harvested and tissue histology was performed. Eosinophils were identified and counted on Hematoxylin & Eosin (H&E) stained slides per high powered field (hpf). The maximal number of eosinophils found in one hpf field in the whole esophagus is shown. The maximal number of eosinophils present in the esophagal epithelium is represented. […] Esophagi were harvest and stained with hematoxylin eosin and eosinophils were counted (maximum/high power field, see FIG. 2).
compound,measurement,value
Oc1cc(O)c2c(c1)O[C@H](c1ccc(O)c(O)c1)[C@H](O)C2 [epicatechin],reduction of eosinophils in the esophagus (maximum number per high power field),no effect
